Assay results published in patent publication US10239843B2 (CANCER RESEARCH TECHNOLOGY LIMITED, priority 2014, dated 2019).
Where two headings read alike, the source gives them in different places.

Target: Human Full Length PARG (Homo sapiens (Human), UniProt Q86W56)
Assay: PARG enzyme assay (TR-FRET)
Format: biochemical
[1] = read-out: PARG Biochem IC50 Geomean

Human Full Length PARG, sequence (Q86W56 whole entry): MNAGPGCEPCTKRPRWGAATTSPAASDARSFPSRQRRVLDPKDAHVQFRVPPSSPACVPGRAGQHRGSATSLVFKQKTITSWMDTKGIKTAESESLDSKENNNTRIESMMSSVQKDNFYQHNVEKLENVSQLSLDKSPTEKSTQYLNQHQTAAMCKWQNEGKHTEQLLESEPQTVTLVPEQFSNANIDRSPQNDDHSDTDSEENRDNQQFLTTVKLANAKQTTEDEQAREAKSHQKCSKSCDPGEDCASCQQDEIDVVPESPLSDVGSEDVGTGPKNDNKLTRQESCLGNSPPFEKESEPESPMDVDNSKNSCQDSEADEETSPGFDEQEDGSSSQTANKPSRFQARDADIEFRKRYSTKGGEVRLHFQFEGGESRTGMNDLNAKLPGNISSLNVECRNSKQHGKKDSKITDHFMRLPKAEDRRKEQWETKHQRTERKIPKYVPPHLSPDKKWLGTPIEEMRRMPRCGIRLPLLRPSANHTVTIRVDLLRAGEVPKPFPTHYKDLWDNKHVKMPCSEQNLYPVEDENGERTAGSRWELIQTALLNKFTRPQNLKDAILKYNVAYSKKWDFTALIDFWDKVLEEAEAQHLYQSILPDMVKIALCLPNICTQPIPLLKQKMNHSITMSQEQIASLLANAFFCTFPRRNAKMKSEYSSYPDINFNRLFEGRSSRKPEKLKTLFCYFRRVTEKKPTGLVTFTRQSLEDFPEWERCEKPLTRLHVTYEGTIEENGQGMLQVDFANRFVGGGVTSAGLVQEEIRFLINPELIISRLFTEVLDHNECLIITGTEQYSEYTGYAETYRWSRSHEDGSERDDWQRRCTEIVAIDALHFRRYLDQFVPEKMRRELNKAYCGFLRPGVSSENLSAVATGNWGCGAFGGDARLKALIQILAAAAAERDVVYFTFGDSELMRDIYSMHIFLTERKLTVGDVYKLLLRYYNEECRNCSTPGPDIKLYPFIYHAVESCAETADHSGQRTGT

| Compound | IC50 [1] [nM] | IC50 (read-out: PARG Biochem IC50) [nM] |
| --- | --- | --- |
| Cn1c(=O)n(Cc2cccnc2)c(=O)c2cc(S(=O)(=O)NC3(C)CC3)ccc21 [Example 30] | 2550 |  |
| CC#CCn1c(=O)n(C)c(=O)c2cc(S(=O)(=O)NC3(C)CC3)ccc21 [Example 136] | 1110 |  |
| Cc1cc(Cn2c(=O)c3cc(S(=O)(=O)NC4(C)CC4)ccc3n(C)c2=O)n[nH]1 [Example 195] | 3220 |  |
| Cn1c(=O)c2cc(S(=O)(=O)NC3(C)CC3)ccc2n(CC(=O)c2ccc(O)cc2)c1=O [Example 107] | 8940 |  |
| CNC(=O)c1nn(Cc2cc(C)no2)c(=O)c2cc(S(=O)(=O)NC3(C)CC3)ccc12 [Example 303] | 800 |  |
| Cn1c(=O)n(CC2CC2)c(=O)c2cc(S(=O)(=O)NC3(C)CC3)ccc21 [Example 20] | 4650 |  |
| Cn1nccc1Cn1c(=O)n(C)c(=O)c2cc(S(=O)(=O)NC3(C)CC3)ccc21 [Example 125] | 1230 |  |
| Cn1c(=O)c2cc(S(=O)(=O)NC3(C)CC3)ccc2n(Cc2ccccc2C(F)(F)F)c1=O [Example 71] | 2390 |  |
| CCOc1nn(Cc2cc(C)no2)c(=O)c2cc(S(=O)(=O)NC3(C)CC3)ccc12 [Example 316, 1-Ethoxy-N-(1-methylcyclopropyl)-3-[(3-methylisoxazol-5-yl)methyl]-4-oxo-phthalazine-6-sulfonamide] | 737 |  |
| Cc1nc(C)c(Cn2c(=O)c3cc(S(=O)(=O)NC4(C)CC4)ccc3n(C)c2=O)o1 [Example 189] | 1330 |  |
| Cn1c(=O)c2cc(S(=O)(=O)NC3(C)CC3)c(F)cc2n(C)c1=O [Example 224] | 1440 |  |
| Cc1nonc1Cn1c(=O)c2cc(S(=O)(=O)NC3(C)CC3)ccc2n(C)c1=O [Example 511, 1-Methyl-N-(1-methylcyclopropyl)-3-[(4-methyl-1,2,5-oxadiazol-3-yl)methyl]-2,4-dioxo-quinazoline-6-sulfonamide] |  | 2060 |
| Cc1cc(Cn2nc(C3CCCC3)c3ccc(S(=O)(=O)NC4(C)CC4)cc3c2=O)on1 [Example 309] | 2520 |  |
| CNc1nn(Cc2cc(C)no2)c(=O)c2cc(S(=O)(=O)NC3(C)CC3)ccc12 [Example 244, 1-(methylamino)-N-(1-methylcyclopropyl)-3-[(3-methylisoxazol-5-yl)methyl]-4-oxo-phthalazine-6-sulfonamide] | 666 |  |
| Cn1c(=O)c2cc(S(=O)(=O)NC3(C)CC3)ccc2n(CCC2CC2)c1=O [Example 43] | 1170 |  |
| Cn1c(=O)c2cc(S(=O)(=O)NC3(C)CC3)ccc2n(CC(=O)c2ccc(N3CCCC3)cc2)c1=O [Example 117] | 4810 |  |
| Cc1csc(Cn2c(=O)c3cc(S(=O)(=O)NC4(C)CC4)ccc3n(C)c2=O)n1 [Example 150] | 4780 |  |
| Cc1cc(Cn2nc(Cl)c3ccc(S(=O)(=O)NC4(C)CC4)cc3c2=O)on1 [Example 262, 1-Chloro-N-(1-methylcyclopropyl)-3-[(3-methylisoxazol-5-yl)methyl]-4-oxo-phthalazine-6-sulfonamide] | 1110 |  |
| COc1nn(Cc2cc(C)no2)c(=O)c2cc(S(=O)(=O)NC3(C)CC3)ccc12 [Example 312, 1-Methoxy-N-(1-methylcyclopropyl)-3-[(3-methylisoxazol-5-yl)methyl]-4-oxo-phthalazine-6-sulfonamide] | 1230 |  |
| Cc1cc(Cn2c(=O)c3cc(S(=O)(=O)NC4(C)CC4)ccc3n(CCN3CCCCC3)c2=O)on1 [Example 278] | 526 |  |
| Cn1c(=O)c2cc(S(=O)(=O)NC3(C)CC3)ccc2n(Cc2cccnc2)c1=O [Example 83] | 1330 |  |
| Cn1c(=O)c(=O)n(Cc2ccccc2)c2ccc(S(=O)(=O)NC3(C)CC3)cc21 [Example 40, 1-Benzyl-4-methyl-N-(1-methylcyclopropyl)-2,3-dioxo-quinoxaline-6-sulfonamide] | 2790 |  |

| Compound | IC50 [1] [nM] | IC50 (read-out: PARG Biochem IC50) [nM] |
| --- | --- | --- |
| CC1(NS(=O)(=O)c2ccc3nc(C4CC4)[nH]c(=O)c3c2)CC1 [Example 54] | 2420 |  |
| Cn1c(=O)c2cc(S(=O)(=O)NC3(C)CC3)ccc2n(Cc2ccccc2F)c1=O [Example 65] | 1450 |  |
| Cc1cc(Cn2nc(CC3CCCCC3)c3ccc(S(=O)(=O)NC4(C)CC4)cc3c2=O)on1 [Example 314] | 1370 |  |
| C#CCn1cc(Cn2c(=O)c3cc(S(=O)(=O)NC4(C)CC4)ccc3n(C)c2=O)cn1 [Example 216] | 560 |  |
| Cn1c(=O)n(Cc2cncs2)c(=O)c2cc(S(=O)(=O)NC3(CF)CC3)ccc21 [Example 534, N-[1-(Fluoromethyl)cyclopropyl]-1-methyl-2,4-dioxo-3-(thiazol-5-ylmethyl)quinazoline-6-sulfonamide] |  | 578 |
| Cn1c(=O)n(CC2CC2(F)F)c(=O)c2cc(S(=O)(=O)NC3(C)CC3)ccc21 (stereo not shown) [Example 50] | 3410 |  |
| Cn1c(=O)n(CC(=O)N2CCOCC2)c(=O)c2cc(S(=O)(=O)NC3(C)CC3)ccc21 [Example 182] | 4410 |  |
| Cn1c(=O)c2cc(S(=O)(=O)NC3(C)CC3)ccc2n(Cc2ccc(C#N)c(F)c2)c1=O [Example 100] | 1280 |  |
| CC(C)Cc1nc2ccc(S(=O)(=O)NC3(C)CC3)cc2c(=O)n1C [Example 81] | 1840 |  |
| Cn1c(=O)c2cc(S(=O)(=O)NC3(C)CC3)ccc2n(C)c1=O [Example 2] | 4740 |  |
| Cc1cc(Cn2cnc3ccc(S(=O)(=O)NC4(C)CC4)cc3c2=O)on1 [Example 210] | 1230 |  |
| CC1(NS(=O)(=O)c2ccc3[nH]c(=O)n(C4CC4)c(=O)c3c2)CC1 [Example 240, 3-Cyclopropyl-N-(1-methylcyclopropyl)-2,4-dioxo-1H-quinazoline-6-sulfonamide] | 4120 |  |
| CC1(NS(=O)(=O)c2ccc3[nH]c(=O)n(CCc4ccccn4)c(=O)c3c2)CC1 [Example 495, N-(1-Methylcyclopropyl)-2,4-dioxo-3-[2-(2-pyridyl)ethyl]-1H-quinazoline-6-sulfonamide] |  | 7070 |
| Cc1nc(C)c(Cn2c(=O)c3cc(S(=O)(=O)NC4(C)CC4)ccc3n(C)c2=O)s1 [Example 142] | 907 |  |
| Cn1cc(NC(=O)Cn2c(=O)n(C)c(=O)c3cc(S(=O)(=O)NC4(C)CC4)ccc32)cn1 [Example 106] | 3880 |  |
| Cn1c(=O)n(CCc2ccccn2)c(=O)c2cc(S(=O)(=O)NC3(C)CC3)ccc21 [Example 498, 1-Methyl-N-(1-methylcyclopropyl)-2,4-dioxo-3-[2-(2-pyridyl)ethyl]quinazoline-6-sulfonamide] |  | 3920 |
| Cc1cc(Cn2cc(Cc3ccc(F)cc3)c3ccc(S(=O)(=O)NC4(C)CC4)cc3c2=O)on1 [Example 322, 4-[(4-Fluorophenyl)methyl]-N-(1-methylcyclopropyl)-2-[(3-methylisoxazol-5-yl)methyl]-1-oxo-isoquinoline-7-sulfonamide] | 2100 |  |
| CCn1c(=O)c2cc(S(=O)(=O)NC3(C)CC3)ccc2n(CC)c1=O [Example 4] | 1470 |  |
| COc1cc(Cn2c(=O)n(C)c(=O)c3cc(S(=O)(=O)NC4(C)CC4)ccc32)cc(OC)c1 [Example 78] | 621 |  |
| CC(C)n1cc(Cn2c(=O)c3cc(S(=O)(=O)NC4(C)CC4)ccc3n(C)c2=O)cn1 [Example 507, 3-[(1-Isopropylpyrazol-4-yl)methyl]-1-methyl-N-(1-methylcyclopropyl)-2,4-dioxo-quinazoline-6-sulfonamide] |  | 4130 |
| CC(C)c1nnsc1Cn1c(=O)c2cc(S(=O)(=O)NC3(C)CC3)ccc2n(C)c1=O [Example 509, 3-[(4-Isopropylthiadiazol-5-yl)methyl]-1-methyl-N-(1-methylcyclopropyl)-2,4-dioxo-quinazoline-6-sulfonamide] |  | 7220 |
